Laboratory results reported in patent US8367873B2, “Phenyl-substituted bicyclooctane-1,3-dione derivatives” (Bayer Cropscience AG, priority 2008, dated 2013).

Tests used:
Assay type in all cases: in vivo
[1] = tested on: Alopecurus myosuroides; test: Herbicidal pre-emergence action; conditions: pre-emergence method, 80 g/ha, greenhouse, visual assessment vs untreated controls
Procedure, shortened: (§1)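 Seeds sown in sandy loam and covered; WP-formulated compounds applied to the soil surface as aqueous suspension at 600 l/ha with 0.2% wetting agent, at varying rates. Greenhouse-grown; emergence damage scored visually after three weeks versus untreated controls (100% = plants dead, 0% = like control).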

[2] = tested on: Echinocloa crus-galli; test: Herbicidal pre-emergence action; conditions: pre-emergence method, 80 g/ha, greenhouse, visual assessment vs untreated controls
Procedure, shortened: as §1

[3] = tested on: Lolium multiflorum; test: Herbicidal pre-emergence action; conditions: pre-emergence method, 80 g/ha, greenhouse, visual assessment vs untreated controls
Procedure, shortened: as §1

[4] = tested on: Setaria viridis; test: Herbicidal pre-emergence action; conditions: pre-emergence method, 80 g/ha, greenhouse, visual assessment vs untreated controls
Procedure, shortened: as §1

[5] = tested on: Alopecurus myosuroides; test: Herbicidal post-emergence action; conditions: post-emergence method; for herbicidal effect against ALOMY (Alopecurus myosuroides): 80 g/ha
Procedure, shortened: (§2)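 Greenhouse-grown weeds were treated post-emergence at the one-leaf stage, two to three weeks after sowing in sandy loam. Compounds formulated as WP were sprayed at various rates in 600 l/ha water with 0.2% wetting agent. Damage was scored visually after about three weeks versus untreated controls (0% = like control, 100% = dead).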

[6] = tested on: Echinocloa crus-galli; test: Herbicidal post-emergence action; conditions: post-emergence method; for herbicidal effect against ECHCG (Echinochloa crus-galli): 80 g/ha
Procedure, shortened: as §2

[7] = tested on: Lolium multiflorum; test: Herbicidal post-emergence action; conditions: post-emergence method; for herbicidal effect against LOLMU (Lolium multiflorum): 80 g/ha
Procedure, shortened: as §2

[8] = tested on: Setaria viridis; test: Herbicidal post-emergence action; conditions: post-emergence method; for herbicidal effect against SETVI (Setaria viridis): 80 g/ha
Procedure, shortened: as §2

[9] = tested on: monocotylidonous and dicotylidonous weed and crop plants; test: Herbicidal pre-emergence action (other test plants); conditions: pre-emergence method, 80 g/ha, greenhouse, visual assessment vs untreated controls
Procedure, shortened: as §1

[10] = tested on: monocotylidonous and dicotylidonous weed and crop plants; test: Herbicidal post-emergence action (other test plants); conditions: post-emergence method; for herbicidal effect against AVEFA (Avena fatua): 80 g/ha
Procedure, shortened: as §2

SMILES	herbicidal effect ALOMY [1]	herbicidal effect ECHCG [2]	herbicidal effect LOLMU [3]	herbicidal effect SETVI [4]	herbicidal effect against ALOMY (Alopecurus myosuroides) [5]	herbicidal effect against ECHCG (Echinochloa crus-galli) [6]	herbicidal effect against LOLMU (Lolium multiflorum) [7]	herbicidal effect against SETVI (Setaria viridis) [8]	herbicidal effect AVEFA [9]	herbicidal effect against AVEFA (Avena fatua) [10]	pest or weed control at 80 g/ha ([5]; Alopecurus myosuroides, 504 h, read-out: herbicidal effect against ALOMY (Alopecurus myosuroides))	pest or weed control at 80 g/ha ([6]; Echinochloa crus-galli, 504 h, read-out: herbicidal effect against ECHCG (Echinochloa crus-galli))	pest or weed control at 80 g/ha ([7]; Lolium multiflorum, 504 h, read-out: herbicidal effect against LOLMU (Lolium multiflorum))	pest or weed control at 80 g/ha ([8]; Setaria viridis, 504 h, read-out: herbicidal effect against SETVI (Setaria viridis))	pest or weed control at 80 g/ha ([10]; 504 h, Avena fatua, read-out: herbicidal effect against AVEFA (Avena fatua))
Cc1cc(C)c(C2=C(OC(=O)C(C)(C)C)C3CC4(COC(C)(C)O4)CC3C2=O)c(C)c1 (mixture of isomers) [I-b-48]	80%	0%	70%	0%	90%	90%	90%	80%	20%	40%	–	–	–	–	–
Cc1cc(C)c(C2=C(O)[C@H]3CC4(C[C@H]3C2=O)OCC(C)CO4)c(C)c1 (relative stereo) [I-a-38]	100%	40%	100%	90%	100%	80%	100%	90%	40%	90%	–	–	–	–	–
Cc1cc(C)c(C2=C(OC(=O)C(C)C)C3CC4(COC(C)(C)O4)CC3C2=O)c(C)c1 (mixture of isomers) [I-b-46]	90%	0%	100%	0%	90%	90%	100%	80%	60%	40%	–	–	–	–	–
CCc1cc(C)cc(CC)c1C1=C(O)[C@H]2CC(=NOCC3CC3)C[C@H]2C1=O (relative stereo) [I-a-31]	80%	100%	100%	90%	100%	100%	100%	100%	40%	80%	–	–	–	–	–
CCc1cc(C)cc(C)c1C1=C(OC(=O)C(C)(C)C)C2CC3(CC2C1=O)OCCCO3 (centres unmarked) [I-b-74]	60%	100%	100%	70%	80%	100%	100%	80%	60%	80%	–	–	–	–	–
C=C1CC2C(=O)C(c3c(CC)cc(C)cc3CC)=C(OC(=O)OCC)C2C1 (centres unmarked) [I-c-5, 2-(2,6-diethyl-4-methylphenyl)-5-methylidene-3-oxo-3,3a,4,5,6,6a-hexahydropentalen-1-yl ethyl carbonate]	80%	90%	80%	80%	–	–	–	–	80%	–	20%	100%	90%	90%	30%
CCc1cc(C)cc(C)c1C1=C(OC(=O)C(C)C)C2CC3(CC2C1=O)OCCO3 (centres unmarked) [I-b-79]	70%	100%	100%	80%	90%	100%	100%	100%	70%	100%	–	–	–	–	–
CCC(=O)OC1=C(c2c(C)cc(C)cc2CC)C(=O)C2CC3(COC(C)(C)O3)CC12 (centres unmarked) [I-b-67]	90%	100%	100%	90%	100%	100%	100%	90%	90%	70%	–	–	–	–	–
CCc1cc(C)cc(CC)c1C1=C(OC(=O)OC)C2CC3(CC2C1=O)OCCCS3 (mixture of isomers) [I-c-32]	80%	100%	100%	70%	80%	90%	90%	80%	70%	90%	–	–	–	–	–
CCc1cc(C)cc(CC)c1C1=C(OC(=O)C(C)(C)C)C2CC3(CC2C1=O)OCCCS3 (mixture of isomers) [I-b-20]	100%	80%	100%	90%	0%	100%	60%	0%	90%	30%	–	–	–	–	–
CCOC1COC2(CC3C(=O)C(c4c(CC)cc(C)cc4CC)=C([O-])C3C2)OC1.[Na+] (centres unmarked) [I-f-14]	100%	100%	100%	100%	100%	100%	100%	100%	70%	100%	–	–	–	–	–
